Laboratory results reported in PubChem BioAssay (NCI).
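Following 48 hours of exposure in 96-well plates, responses at five concentrations were used to interpolate endpoints linearly. TGI: concentration producing complete growth inhibition.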

What was measured:
Test in all cases: growth of human tumour cells (NCI), 48 h
A498 renal = test system: A498 renal
A549 NSCLC = test system: A549 NSCLC
ACHN renal = test system: ACHN renal
CAKI-1 renal = test system: CAKI-1 renal
CCRF-CEM leukemia = test system: CCRF-CEM leukemia
COLO 205 colon = test system: COLO 205 colon
DU-145 prostate = test system: DU-145 prostate
EKVX NSCLC = test system: EKVX NSCLC
HCC-2998 colon = test system: HCC-2998 colon
HCT-116 colon = test system: HCT-116 colon
HCT-15 colon = test system: HCT-15 colon
HL-60(TB) leukemia = test system: HL-60(TB) leukemia
HOP-62 NSCLC = test system: HOP-62 NSCLC
HS 578T breast = test system: HS 578T breast
HT29 colon = test system: HT29 colon
IGROV1 ovarian = test system: IGROV1 ovarian
K-562 leukemia = test system: K-562 leukemia
KM12 colon = test system: KM12 colon
LOX IMVI melanoma = test system: LOX IMVI melanoma
M14 melanoma = test system: M14 melanoma
MALME-3M melanoma = test system: MALME-3M melanoma
MCF7 breast = test system: MCF7 breast
MDA-MB-231 breast = test system: MDA-MB-231 breast
MDA-MB-435 = test system: MDA-MB-435
MDA-N = test system: MDA-N
MOLT-4 leukemia = test system: MOLT-4 leukemia
NCI-H226 lung = test system: NCI-H226 lung
NCI-H23 lung = test system: NCI-H23 lung
NCI-H460 lung = test system: NCI-H460 lung
NCI-H522 lung = test system: NCI-H522 lung
NCI/ADR-RES ovarian = test system: NCI/ADR-RES ovarian
OVCAR-3 ovarian = test system: OVCAR-3 ovarian
OVCAR-4 ovarian = test system: OVCAR-4 ovarian
OVCAR-5 ovarian = test system: OVCAR-5 ovarian
OVCAR-8 ovarian = test system: OVCAR-8 ovarian
PC-3 prostate = test system: PC-3 prostate
RPMI-8226 leukemia = test system: RPMI-8226 leukemia
RXF 393 renal = test system: RXF 393 renal
SF-268 CNS = test system: SF-268 CNS
SF-295 CNS = test system: SF-295 CNS
SF-539 CNS = test system: SF-539 CNS
SK-MEL-2 melanoma = test system: SK-MEL-2 melanoma
SK-MEL-28 melanoma = test system: SK-MEL-28 melanoma
SK-MEL-5 melanoma = test system: SK-MEL-5 melanoma
SK-OV-3 ovarian = test system: SK-OV-3 ovarian
SN12C renal = test system: SN12C renal
SNB-19 CNS = test system: SNB-19 CNS
SNB-75 CNS = test system: SNB-75 CNS
SR leukemia = test system: SR leukemia
SW-620 colon = test system: SW-620 colon
T-47D breast = test system: T-47D breast
TK-10 renal = test system: TK-10 renal
U251 CNS = test system: U251 CNS
UACC-62 melanoma = test system: UACC-62 melanoma
UO-31 renal = test system: UO-31 renal
786-0 renal = test system: 786-0 renal
HOP-92 NSCLC = test system: HOP-92 NSCLC
UACC-257 melanoma = test system: UACC-257 melanoma

Measured: TGI

N#Cc1c(N)nc(Nc2cccc3ccccc23)c(C#N)c1C#N
9.29 µM: SR leukemia
9.64 µM: K-562 leukemia
7.57 µM: OVCAR-3 ovarian
6.19 µM: RPMI-8226 leukemia
6.05 µM: CCRF-CEM leukemia
9.2 µM: MOLT-4 leukemia
4 µM: MDA-N
8.7 µM: HS 578T breast
4.77 µM: HL-60(TB) leukemia
4.36 µM: LOX IMVI melanoma
not listed: 786-0 renal | HOP-92 NSCLC | UACC-257 melanoma
> 10 µM: all other assays above

CCOC(=O)C(NC(=O)CC(C)C)(NC(C)C)C(F)(F)F (stereo unspecified)
not listed: SNB-75 CNS | UACC-62 melanoma
> 100 µM: all other assays above
